Source: PubChem BioAssay (NCI)
Values joined by “and” are separate entries in the source; they are usually repeats but may differ in a detail not shown here. Identical values can stand only once.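 Dose response: 5 concentrations. Exposure: 48 h. Format: 96-well plates. Endpoint: linear interpolation; highest concentration if not reached. GI50 = concentration required for 50% inhibition of growth. TGI denotes the concentration required for complete inhibition of growth.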

Assays:
Experiment in all cases: NCI anticancer screen, dose series, 48 h
DMS 273 small cell lung = system: DMS 273 small cell lung
SF-539 CNS = system: SF-539 CNS
HCT-15 colon = system: HCT-15 colon
HOP-62 NSCLC = system: HOP-62 NSCLC
UACC-62 melanoma = system: UACC-62 melanoma
HCC-2998 colon = system: HCC-2998 colon
ACHN renal = system: ACHN renal
T-47D breast = system: T-47D breast
DU-145 prostate = system: DU-145 prostate
DMS 114 small cell lung = system: DMS 114 small cell lung
HCT-116 colon = system: HCT-116 colon

| SMILES | TGI (DMS 273 small cell lung) [µM] | GI50 (SF-539 CNS) [µM] | TGI (SF-539 CNS) | GI50 (HCT-15 colon) [µM] | GI50 (HOP-62 NSCLC) [µM] | TGI (HOP-62 NSCLC) | GI50 (UACC-62 melanoma) [µM] | TGI (UACC-62 melanoma) | TGI (HCC-2998 colon) | TGI (ACHN renal) [µM] | TGI (T-47D breast) [µM] | TGI (DU-145 prostate) [µM] | TGI (DMS 114 small cell lung) [µM] | GI50 (HCT-116 colon) [µM] | TGI (HCT-116 colon) | TGI (HCT-15 colon) [µM] | GI50 (ACHN renal) [µM] | GI50 (DU-145 prostate) [µM] |
| --- | --- | --- | --- | --- | --- | --- | --- | --- | --- | --- | --- | --- | --- | --- | --- | --- | --- | --- |
| COc1ccc2[nH]c3ccc4cc[n+](CCN5CCC(C6CCN(CC[n+]7ccc8ccc9[nH]c%10ccc(OC)cc%10c9c8c7)CC6)CC5)cc4c3c2c1 | > 100 | 1.26 | 50 µM and > 100 µM | 0.266 | 34.4 | 50 µM and > 100 µM | 31 | 50 µM and 17.7 µM | 14.2 µM and > 100 µM | 50 | 50 | 50 | 4.08 | 0.374 | 50 µM and > 57.1 µM |  |  |  |
| COc1cc(/C=C/c2ccc(OC)c(OC)c2)oc(=O)c1 | > 250 |  | > 250 µM |  |  | > 250 µM |  | > 250 µM | > 250 µM |  |  |  | > 250 |  | > 250 µM | > 250 |  |  |
| CC1[C@@]2(O[C@@H]3C=C4C5CCC6Cc7nc8c(nc7C[C@@]6(C)C5C[C@H](O)[C@@]4(C)[C@]13O)CC1CCc3c(cc4c5c3C(O)C[C@H]5[C@@H](C)C3(O4)OC(C)(C)CC3O)[C@]1(C)C8)O[C@@](C)(CO)C[C@@H]2O (some centres undefined) | 0.117 |  | > 3.72 µM |  |  | 0.263 µM |  | 0.748 µM | > 3.72 µM |  |  |  | > 3.72 |  | > 3.72 µM | > 3.72 |  |  |
| O=[N+]([O-])c1ccc(C[P+]2(c3ccccc3)CCCCC2)cc1 (tested in a mixture with another compound) | > 100 |  | > 100 µM |  |  | > 100 µM |  | > 100 µM | > 100 µM | > 100 |  |  | > 100 |  |  | > 100 |  |  |
| COc1ccccc1/C=C1\C(=O)N(C(=O)Cc2ccccc2)N=C1C | > 100 |  | > 100 µM |  |  | > 100 µM |  |  | > 100 µM | > 100 |  |  | > 100 |  | > 100 µM | > 100 |  |  |
| Cc1ccc(C(=O)Nc2ccc(S(=O)(=O)O)c3cc(S(=O)(=O)O)cc(S(=O)(=O)O)c23)cc1NC(=O)c1cccc(NC(=O)Nc2cccc(C(=O)Nc3cc(C(=O)Nc4ccc(S(=O)(=O)O)c5cc(S(=O)(=O)O)cc(S(=O)(=O)O)c45)ccc3C)c2)c1 | > 100 |  | > 100 µM |  |  | > 100 µM |  | > 100 µM | > 100 µM | > 100 | > 100 | > 100 | > 100 |  | > 100 µM | > 100 |  |  |
| CCC1(CC)C(=O)NC(=O)NC1=S | > 100 |  | > 100 µM |  |  | > 100 µM |  | > 100 µM |  | > 100 |  |  | > 100 |  | > 100 µM | > 100 |  |  |
| CCC1(O)C(=O)OCc2c1cc1n(c2=O)Cc2cc3cc4c(cc3nc2-1)OCO4 (centres undefined) | 0.0151 |  |  |  |  | < 0.0198 µM |  | 0.0509 µM | 0.396 µM |  | > 100 | > 100 | 0.0284 |  | 0.108 µM | 19 |  |  |
| ClCCCN1CCN(CCCl)CC1 | 475 | 27.9 | 233 µM |  |  | 168 µM | 20 | 92 µM | 997 µM | 265 | > 745 | 692 | 203 |  | 747 µM | 790 | 7.09 | 26.9 |
| Nc1nnc(N)n1N | > 100 |  | > 100 µM |  |  | > 100 µM |  | > 100 µM | > 100 µM | > 100 |  |  | > 100 |  | > 100 µM | > 100 |  |  |
